Measured values from patent publication EP4745135A1 (Gluetacs Therapeutics (Shanghai) Co., Ltd., priority 2023, dated 2025).
pIC50: −log10 of the molar value.

What was measured:
GSPT1 = assay: Western blot, degradation of substrate protein in hPBMCs; assay type: cell-based, Human; settings: Western blot, 24 hours of compound treatment, compounds tested at 50 nM and 500 nM (concentration for the table not stated)
[1] = system: Human breast cancer cell (MCF-7); assay: Tumor cell proliferation inhibition (CellTiter-Meiluncell luminescent cell viability assay); settings: MCF7, 96 h; for IC50: read-out: Inhibitory activity (IC50, nM) on tumor cell proliferation, MCF7
[2] = system: Human T lymphocytic leukemia cell line: Jurkat; assay: as above; settings: 96 h; for IC50: read-out: Inhibitory activity (IC50, nM) on tumor cell proliferation, Jurkat
[3] = system: Human mantle cell lymphoma cell line: JEKO-1; assay: as above; settings: JeKo-1, 96 h, read-out: Inhibitory activity (IC50, nM) on tumor cell proliferation, JEKO-1
Description: (§1) The tumor cells used herein were cultured in a cell culture medium listed in table 2 at 37°C in an incubator with 5% CO2. Prior to experimentation, all cell lines used were correctly identified by STR profiling, and tested negative for mycoplasma contamination using a mycoplasma detection kit through routine screenings.
(§2) The IC50 values of the compounds of the present disclosure (including the compounds in Table 1 and Examples) were determined using the CellTiter-Meiluncell Luminescent Cell Viability Assay Kit from Dalian Meilun Biotech Co., Ltd. The detailed procedure is as follows: Tumor cells were seeded in 96-well cell culture plates at the densities specified in Table 3. On the following day, the test compounds of the present disclosure were subjected to serial dilution. The dilution can be performed according to one of the following two methods: • (1) The first dilution method: The test compounds of the present disclosure (including the compounds in Table 1 and Examples) were subjected to 5-fold serial dilutions starting from a highest concentration of 2000 µM, resulting in a total of 9 concentrations from high to low (2000, 400, 80, 16, 3.2, 0.64, 0.128, 0.0256, 0.00512 µM). Subsequently, 0.5 µL of the test compound dilution was transferred into the 96-well plate containing the cells, with each well containing 100 µL of cell culture medium. […] Into the 96-well plate, the diluted test compounds and corresponding detection reagents were added, resulting in final test compound concentrations of 500 nM and 10 nM, respectively. The experimental procedure is described below using the diluted 2 µM test compound as an example.
(§3) 0.5 µL of the aforementioned diluted compound of the present disclosure (including the compounds in Table 1 and Examples) was added to the seeded cells in 100 µL of medium, yielding a final test compound concentration of 10 nM. After the cells were treated with the compounds of the present disclosure for a specified period, the cell viability assay reagent was added to the culture medium according to the kit's instructions to determine cell viability. […] All controls were treated using the same procedure as the compounds of the present disclosure. The growth inhibition curves for the compounds of the present disclosure were plotted using Prism GraphPad software, and the IC50 values were calculated therefrom.

[4] = system: Human non-small cell lung cancer cell line: NCI-H1975; assay: as above; settings: NCI-H1975, 96 h, read-out: Inhibitory activity (IC50, nM) on tumor cell proliferation, H1975
Description: as §1, §2, §3

[5] = molecular target: T1, human Cereblon WT GST-tagged protein (Homo sapiens, UniProt Q96SW2); assay: CRBN-binding affinity, HTRF (CEREBLON BINDING kit); settings: CRBN binding, HTRF, 3 hours at room temperature; read-out: HTRF IC50
T1 construct: purchased CISBIO 64BDCRBNPEH

[6] = system: Human multiple myeloma cell (MM.1S); assay: Tumor cell proliferation inhibition (CellTiter-Meiluncell luminescent cell viability assay); settings: Homo sapiens, MM1.S, 96 h, read-out: Inhibitory activity (IC50, nM) on tumor cell proliferation, MM.1S
IKZF3 = molecular target: T2, IKZF3 (Homo sapiens, UniProt Q96SW2+Q9UKT9); assay: Western blot, degradation of substrate protein in hPBMCs; assay type: cell-based; settings: Western blot, 24 hours of compound treatment, compounds tested at 50 nM and 500 nM (concentration for the table not stated)
T2 construct: effects of the compounds of the present disclosure on the expression of target proteins in cells; endogenous in cells; host or cells: human PBMCs (Milecell Biotechnologies)

WEE1 = molecular target: T3, WEE1 (Homo sapiens, UniProt P30291+Q96SW2); assay: as above; assay type: cell-based; settings: Western blot, 24 hours of compound treatment, compounds tested at 50 nM and 500 nM (concentration for the table not stated)
T3 construct: effects of the compounds of the present disclosure on the expression of target proteins in cells; endogenous in cells; host or cells: human PBMCs (Milecell Biotechnologies)

IKZF1 = molecular target: T4, IKZF1 (Homo sapiens, UniProt Q13422+Q96SW2); assay: as above; assay type: cell-based; settings: Western blot, 24 hours of compound treatment, compounds tested at 50 nM and 500 nM (concentration for the table not stated)
T4 construct: effects of the compounds of the present disclosure on the expression of target proteins in cells; endogenous in cells; host or cells: human PBMCs (Milecell Biotechnologies)

IKZF2 = molecular target: T5, IKZF2 (Homo sapiens, UniProt Q96SW2+Q9UKS7); assay: as above; assay type: cell-based; settings: Western blot, 24 hours of compound treatment, compounds tested at 50 nM and 500 nM (concentration for the table not stated)
T5 construct: effects of the compounds of the present disclosure on the expression of target proteins in cells; endogenous in cells; host or cells: human PBMCs (Milecell Biotechnologies)

CK1α = molecular target: T6, CK1α (Homo sapiens, UniProt P48729+Q96SW2); assay: as above; assay type: cell-based; settings: Western blot, 24 hours of compound treatment, compounds tested at 50 nM and 500 nM (concentration for the table not stated)
T6 construct: effects of the compounds of the present disclosure on the expression of target proteins in cells; endogenous in cells; host or cells: human PBMCs (Milecell Biotechnologies)

[7] = system: Human gastric cancer cell line: MGC803; assay: Tumor cell proliferation inhibition (CellTiter-Meiluncell luminescent cell viability assay); settings: MGC-803, read-out: Inhibitory activity (IC50, nM) on tumor cell proliferation, MGC803
Description: as §2, §3

[8] = system: Human diffuse large B-cell lymphoma cell line: TMD8; assay: as above; settings: TMD8, 96 h, read-out: Inhibitory activity (IC50, nM) on tumor cell proliferation, TMD8
Description: as §1, §2
0.5 µL of the aforementioned diluted compound of the present disclosure (including the compounds in Table 1 and Examples) was added to the seeded cells in 100 µL of medium, yielding a final test compound concentration of 10 nM. […] The growth inhibition curves for the compounds of the present disclosure were plotted using Prism GraphPad software, and the IC50 values were calculated therefrom.

[9] = system: Human multiple myeloma peripheral blood B lymphocyte cell (RPMI-8226); assay: as above; settings: RPMI-8226, 96 h; for IC50: read-out: Inhibitory activity (IC50, nM) on tumor cell proliferation, RPMI-8226
[10] = system: Human acute myeloid leukemia cell line: Kasumi-1; assay: as above; settings: Kasumi 1, 96 h
[11] = system: Human malignant melanoma cell line: A375; assay: as above; settings: A-375, 96 h
Description: as §1, §2, §3

[12] = system: Human colon cancer cell line: SW620; assay: as above; settings: SW-620, 96 h
Description: as §1, §2, §3

[13] = system: Human T cell acute lymphoblastic leukemia cell (CCRF-CEM); assay: as above; settings: 96 h
Description: as §1, §2, §3

[14] = system: Human monocytic leukemia cell line: THP-1; assay: as above; settings: THP-1, 96 h
Description: as §1, §2, §3

[15] = system: Human myeloid monocytic leukemia cell (MV-4-11); assay: as above; settings: MV4-11, 96 h
[16] = read-out: Inhibition Rate at 10 nM (%)
[17] = read-out: Inhibition Rate at 500 nM (%)

T5 sequence (Q9UKS7 whole entry): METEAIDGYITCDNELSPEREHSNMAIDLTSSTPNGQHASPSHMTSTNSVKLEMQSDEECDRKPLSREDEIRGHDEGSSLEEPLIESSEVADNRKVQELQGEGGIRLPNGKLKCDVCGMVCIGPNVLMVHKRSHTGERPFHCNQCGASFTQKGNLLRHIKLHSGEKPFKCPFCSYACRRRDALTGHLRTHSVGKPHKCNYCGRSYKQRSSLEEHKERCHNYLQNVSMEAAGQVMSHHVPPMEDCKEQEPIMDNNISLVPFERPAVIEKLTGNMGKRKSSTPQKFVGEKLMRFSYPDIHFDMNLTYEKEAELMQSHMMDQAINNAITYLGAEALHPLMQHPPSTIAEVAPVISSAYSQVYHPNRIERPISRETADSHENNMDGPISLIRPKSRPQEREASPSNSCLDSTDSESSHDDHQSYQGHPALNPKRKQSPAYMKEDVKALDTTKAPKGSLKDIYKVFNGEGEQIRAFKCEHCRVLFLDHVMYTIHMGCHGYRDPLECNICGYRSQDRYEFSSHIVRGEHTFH
T5 sequence (Q96SW2 whole entry): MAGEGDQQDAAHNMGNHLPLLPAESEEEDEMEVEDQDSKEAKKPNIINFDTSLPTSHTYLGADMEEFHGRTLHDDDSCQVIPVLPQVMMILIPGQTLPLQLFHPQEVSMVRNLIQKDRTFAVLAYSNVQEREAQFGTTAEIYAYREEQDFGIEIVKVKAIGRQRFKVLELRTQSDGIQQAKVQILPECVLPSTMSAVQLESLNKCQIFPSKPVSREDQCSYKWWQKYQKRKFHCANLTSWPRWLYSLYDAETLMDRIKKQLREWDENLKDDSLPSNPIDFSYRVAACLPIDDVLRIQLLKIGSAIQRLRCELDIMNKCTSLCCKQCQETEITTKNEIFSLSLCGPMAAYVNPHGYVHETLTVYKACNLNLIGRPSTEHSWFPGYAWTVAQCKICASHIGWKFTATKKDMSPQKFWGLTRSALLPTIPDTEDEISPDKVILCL
T5 sequence (Q16531 whole entry partner): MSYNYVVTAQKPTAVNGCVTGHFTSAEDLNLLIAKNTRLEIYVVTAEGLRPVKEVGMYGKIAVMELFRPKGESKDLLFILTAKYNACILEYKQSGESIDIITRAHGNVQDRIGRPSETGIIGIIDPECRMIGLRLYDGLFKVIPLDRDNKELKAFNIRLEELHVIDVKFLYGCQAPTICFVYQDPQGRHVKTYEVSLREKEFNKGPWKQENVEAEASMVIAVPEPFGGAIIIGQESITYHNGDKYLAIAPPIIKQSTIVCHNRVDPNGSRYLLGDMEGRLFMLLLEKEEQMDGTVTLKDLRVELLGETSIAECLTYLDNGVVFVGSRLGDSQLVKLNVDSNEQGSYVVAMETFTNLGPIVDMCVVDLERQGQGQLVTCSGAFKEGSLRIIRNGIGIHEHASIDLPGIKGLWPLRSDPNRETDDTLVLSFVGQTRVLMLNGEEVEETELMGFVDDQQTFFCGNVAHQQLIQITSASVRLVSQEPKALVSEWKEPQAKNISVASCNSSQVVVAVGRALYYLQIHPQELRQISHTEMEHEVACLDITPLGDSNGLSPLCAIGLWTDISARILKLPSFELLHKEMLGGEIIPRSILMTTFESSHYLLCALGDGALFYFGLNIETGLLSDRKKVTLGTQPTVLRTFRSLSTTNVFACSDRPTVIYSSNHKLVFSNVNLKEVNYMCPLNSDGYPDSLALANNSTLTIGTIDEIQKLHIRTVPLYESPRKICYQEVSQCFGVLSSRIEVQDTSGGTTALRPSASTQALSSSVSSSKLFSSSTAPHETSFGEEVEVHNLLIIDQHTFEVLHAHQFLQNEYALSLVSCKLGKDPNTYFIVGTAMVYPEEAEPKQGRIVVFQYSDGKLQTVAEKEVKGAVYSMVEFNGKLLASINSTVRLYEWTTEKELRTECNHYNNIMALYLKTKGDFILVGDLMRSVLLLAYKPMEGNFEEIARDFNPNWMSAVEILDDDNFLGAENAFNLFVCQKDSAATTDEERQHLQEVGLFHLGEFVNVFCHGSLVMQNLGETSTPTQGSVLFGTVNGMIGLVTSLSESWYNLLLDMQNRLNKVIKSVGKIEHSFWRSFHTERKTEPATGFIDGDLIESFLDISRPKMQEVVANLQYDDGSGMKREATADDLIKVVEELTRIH
T2 sequence (Q9UKT9 whole entry): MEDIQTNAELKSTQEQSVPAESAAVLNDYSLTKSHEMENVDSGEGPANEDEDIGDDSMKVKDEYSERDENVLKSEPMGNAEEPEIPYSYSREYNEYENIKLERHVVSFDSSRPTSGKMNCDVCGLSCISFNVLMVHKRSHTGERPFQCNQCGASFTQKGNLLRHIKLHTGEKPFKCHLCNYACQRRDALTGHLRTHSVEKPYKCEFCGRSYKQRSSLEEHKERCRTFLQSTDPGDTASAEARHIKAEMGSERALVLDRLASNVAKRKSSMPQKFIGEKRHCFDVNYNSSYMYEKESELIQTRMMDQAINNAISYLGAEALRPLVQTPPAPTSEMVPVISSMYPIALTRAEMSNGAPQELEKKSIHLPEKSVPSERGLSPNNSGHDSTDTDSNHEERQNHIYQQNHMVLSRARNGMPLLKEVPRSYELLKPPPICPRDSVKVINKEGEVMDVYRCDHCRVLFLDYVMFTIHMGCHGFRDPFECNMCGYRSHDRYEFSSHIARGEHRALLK
T2 sequence (Q96SW2 whole entry): as the sequence (Q96SW2 whole entry) above
T2 sequence (Q16531 whole entry partner): as the sequence (Q16531 whole entry partner) above
T6 sequence (P48729 whole entry): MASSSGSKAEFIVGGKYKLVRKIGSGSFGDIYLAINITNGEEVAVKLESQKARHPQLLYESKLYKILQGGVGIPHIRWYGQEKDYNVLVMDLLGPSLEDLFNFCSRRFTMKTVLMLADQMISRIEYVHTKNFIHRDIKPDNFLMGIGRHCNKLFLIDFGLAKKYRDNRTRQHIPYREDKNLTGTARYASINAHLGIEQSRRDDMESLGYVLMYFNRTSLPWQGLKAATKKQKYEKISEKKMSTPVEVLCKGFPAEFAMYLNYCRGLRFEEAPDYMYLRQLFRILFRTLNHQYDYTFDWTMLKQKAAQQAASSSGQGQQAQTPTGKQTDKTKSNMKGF
T6 sequence (Q96SW2 whole entry): as the sequence (Q96SW2 whole entry) above
T6 sequence (Q16531 whole entry partner): as the sequence (Q16531 whole entry partner) above
T4 sequence (Q13422 whole entry): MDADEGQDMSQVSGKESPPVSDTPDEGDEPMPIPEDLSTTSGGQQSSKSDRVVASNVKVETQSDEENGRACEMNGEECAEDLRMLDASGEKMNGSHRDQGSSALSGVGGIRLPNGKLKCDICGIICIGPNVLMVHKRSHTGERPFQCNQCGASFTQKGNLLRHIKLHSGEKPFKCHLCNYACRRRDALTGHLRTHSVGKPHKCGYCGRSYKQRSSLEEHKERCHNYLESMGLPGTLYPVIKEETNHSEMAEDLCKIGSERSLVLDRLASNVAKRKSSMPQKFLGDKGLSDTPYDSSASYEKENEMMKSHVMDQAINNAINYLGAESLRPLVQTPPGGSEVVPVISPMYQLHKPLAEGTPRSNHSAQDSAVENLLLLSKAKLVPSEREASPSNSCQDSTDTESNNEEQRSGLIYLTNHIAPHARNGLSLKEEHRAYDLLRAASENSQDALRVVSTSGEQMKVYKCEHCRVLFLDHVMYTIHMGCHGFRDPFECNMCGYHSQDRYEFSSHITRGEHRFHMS
T4 sequence (Q96SW2 whole entry): as the sequence (Q96SW2 whole entry) above
T4 sequence (Q16531 whole entry partner): as the sequence (Q16531 whole entry partner) above
T3 sequence (P30291 whole entry): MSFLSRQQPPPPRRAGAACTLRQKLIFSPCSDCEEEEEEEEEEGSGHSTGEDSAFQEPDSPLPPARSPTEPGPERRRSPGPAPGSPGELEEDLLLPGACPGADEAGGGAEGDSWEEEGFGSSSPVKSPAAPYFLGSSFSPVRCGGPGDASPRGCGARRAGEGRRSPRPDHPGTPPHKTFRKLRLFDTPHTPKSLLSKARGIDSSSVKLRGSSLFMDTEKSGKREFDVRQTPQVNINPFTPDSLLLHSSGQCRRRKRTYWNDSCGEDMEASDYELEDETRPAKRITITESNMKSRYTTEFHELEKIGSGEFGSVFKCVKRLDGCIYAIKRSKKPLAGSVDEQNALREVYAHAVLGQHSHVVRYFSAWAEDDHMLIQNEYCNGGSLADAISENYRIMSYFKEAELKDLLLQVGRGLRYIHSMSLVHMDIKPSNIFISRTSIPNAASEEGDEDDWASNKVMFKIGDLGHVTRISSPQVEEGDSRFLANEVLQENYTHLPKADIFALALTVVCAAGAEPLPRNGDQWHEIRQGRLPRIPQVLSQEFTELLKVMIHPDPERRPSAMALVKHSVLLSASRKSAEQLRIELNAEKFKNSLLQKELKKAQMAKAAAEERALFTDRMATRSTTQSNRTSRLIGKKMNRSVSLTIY
T3 sequence (Q96SW2 whole entry): as the sequence (Q96SW2 whole entry) above
T3 sequence (Q16531 whole entry partner): as the sequence (Q16531 whole entry partner) above
T1 sequence (Q96SW2 whole entry): as the sequence (Q96SW2 whole entry) above

Compound	IC50 [8]	IC50 [9]	GSPT1 substrate protein remaining % (GSPT1)	IC50 [1]	IC50 [2]	IC50 [3]	IC50 [4]	pIC50 [5]	IC50 [6]	IKZF3 substrate protein remaining % (IKZF3)	Wee1 substrate protein remaining % (WEE1)	IKZF 1 substrate protein remaining % (IKZF1)	IKZF2 substrate protein remaining % (IKZF2)	CK1α substrate protein remaining % (CK1α)	IC50 [7]	further results
Cc1cscc1C1=CCN(Cc2ccc3c(c2)CN(C2CCC(=O)NC2=O)C3=S)CC1 (stereo not shown) [GT-05145, 3-(5-((4-(4-methylthiophen-3-yl)-3,6-dihydropyridin-1(2H)-yl)methyl)-1-thioxoisoindolin-2-yl)piperidine-2,6-dione]	–	–	A (0% ≤ substrate protein remaining % ≤ 80%)	10 to 50 nM	< 5 nM	< 5 nM	5 to 10 nM	> 7.00	< 5 nM	A (0% ≤ substrate protein remaining % ≤ 80%)	A (0% ≤ substrate protein remaining % ≤ 80%)	A (0% ≤ substrate protein remaining % ≤ 80%)	A (0% ≤ substrate protein remaining % ≤ 80%)	A (0% ≤ substrate protein remaining % ≤ 80%)	10 to 50 nM	–
O=C1CCC(N2Cc3cc(CN4CC=C(c5cccc(Cl)c5Cl)CC4)ccc3C2=S)C(=O)N1 (stereo not shown) [GT-05149, 3-(5-((4-(2,3-dichlorophenyl)-3,6-dihydropyridin-1(2H)-yl)methyl)-1-thioxoisoindolin-2-yl)piperidine-2,6-dione]	–	–	A (0% ≤ substrate protein remaining % ≤ 80%)	10 to 50 nM	5 to 10 nM	5 to 10 nM	10 to 50 nM	6.30 to 7.00	< 5 nM	A (0% ≤ substrate protein remaining % ≤ 80%)	A (0% ≤ substrate protein remaining % ≤ 80%)	A (0% ≤ substrate protein remaining % ≤ 80%)	A (0% ≤ substrate protein remaining % ≤ 80%)	B (80%< substrate protein remaining %≤ 100%)	10 to 50 nM	–
O=C1CCC(N2Cc3cc(CN4CCC(c5cccc(Cl)c5Cl)CC4)ccc3C2=S)C(=O)N1 (stereo not shown) [GT-05150, 3-(5-((4-(2,3-dichlorophenyl)piperidin-1-yl)methyl)-1-thioxoisoindolin-2-yl)piperidine-2,6-dione]	–	–	A (0% ≤ substrate protein remaining % ≤ 80%)	100 to 500 nM	10 to 50 nM	50 to 100 nM	50 to 100 nM	6.00 to 6.30	5 to 10 nM	B (80%< substrate protein remaining %≤ 100%)	A (0% ≤ substrate protein remaining % ≤ 80%)	A (0% ≤ substrate protein remaining % ≤ 80%)	A (0% ≤ substrate protein remaining % ≤ 80%)	B (80%< substrate protein remaining %≤ 100%)	100 to 500 nM	–
O=C1CCC(N2Cc3cc(CN4CCC(c5c[nH]c6cc(F)ccc56)CC4)ccc3C2=S)C(=O)N1 (stereo not shown) [GT-05243, 3-(5-((4-(6-fluoro-1H-indol-3-yl)piperidin-1-yl)methyl)-1-thioxoisoindolin-2-yl)piperidine-2,6-dione]	100 to 500 nM	10 to 50 nM	A (0% ≤ substrate protein remaining % ≤ 80%)	–	–	–	–	> 7.00	< 5 nM	A (0% ≤ substrate protein remaining % ≤ 80%)	A (0% ≤ substrate protein remaining % ≤ 80%)	B (80%< substrate protein remaining %≤ 100%)	A (0% ≤ substrate protein remaining % ≤ 80%)	B (80%< substrate protein remaining %≤ 100%)	–	–

Continued, in another order:

IC50 [8]	IC50 [9]	Compound	GSPT1 substrate protein remaining % (GSPT1)	IC50 [1]	IC50 [2]	IC50 [3]	IC50 [4]	pIC50 [5]	IC50 [6]	IKZF3 substrate protein remaining % (IKZF3)	Wee1 substrate protein remaining % (WEE1)	IKZF 1 substrate protein remaining % (IKZF1)	IKZF2 substrate protein remaining % (IKZF2)	CK1α substrate protein remaining % (CK1α)	IC50 [7]	further results
100 to 500 nM	10 to 50 nM	Cn1cc(C2=CCN(Cc3ccc4c(c3)CN(C3CCC(=O)NC3=O)C4=S)CC2)c2ccc(F)cc21 (stereo not shown) [GT-05247, 3-(5-((4-(6-fluoro-1-methyl-1H-indol-3-yl)-3,6-dihydropyridin-1(2H)-yl)methyl)-1-thioxoisoindolin-2-yl)piperidine-2,6-dione]	A (0% ≤ substrate protein remaining % ≤ 80%)	–	–	–	–	6.30 to 7.00	< 5 nM	A (0% ≤ substrate protein remaining % ≤ 80%)	A (0% ≤ substrate protein remaining % ≤ 80%)	B (80%< substrate protein remaining %≤ 100%)	A (0% ≤ substrate protein remaining % ≤ 80%)	A (0% ≤ substrate protein remaining % ≤ 80%)	–	–
> 10000 nM	1000 to 5000 nM	Nc1cccc2c1C(=O)N(C1CCC(=O)NC1=O)C2=O (stereo not shown) [pomalidomide, reference compound]	–	> 10000 nM	> 10000 nM	5000 to 10000 nM	> 10000 nM	–	500 to 1000 nM	–	–	–	–	–	> 10000 nM	inhibition at 0.01 µM [1, 16]: 5 to 10%; inhibition at 0.5 µM [1, 17]: 0 to 5%; inhibition at 0.01 µM [2, 16]: 10 to 20%; inhibition at 0.5 µM [2, 17]: 10 to 20%; inhibition at 0.01 µM [10, 16]: -10 to -5%; inhibition at 0.5 µM [10, 17]: -5 to 0%; inhibition at 0.01 µM [11, 16]: 10 to 20%; inhibition at 0.5 µM [11, 17]: 5 to 10%; inhibition at 0.01 µM [12, 16]: 20 to 30%; inhibition at 0.5 µM [12, 17]: 20 to 30%; inhibition at 0.01 µM [13, 16]: 0 to 5%; inhibition at 0.5 µM [13, 17]: 0 to 5%; inhibition at 0.01 µM [9, 16]: 10 to 20%; inhibition at 0.5 µM [9, 17]: 30 to 40%; inhibition at 0.01 µM [14, 16]: 10 to 20%; inhibition at 0.5 µM [14, 17]: 10 to 20%; inhibition at 0.01 µM [15, 16]: 18 to 25%; inhibition at 0.5 µM [15, 17]: 10 to 18%
